# In PubChem BioAssay (NCI):
#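 Briefly, cells in 96-well plates were exposed to five compound concentrations for 48 h, and endpoints were estimated by linear interpolation. GI50 = concentration required for 50% inhibition of growth. TGI is the concentration that stops growth completely.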
# Assays:
# Assay in all cases: growth of human tumour cells (NCI), 48 h
# MOLT-4 leukemia = tested on: MOLT-4 leukemia
# SK-MEL-5 melanoma = tested on: SK-MEL-5 melanoma
# A549 NSCLC = tested on: A549 NSCLC
# DU-145 prostate = tested on: DU-145 prostate
# MDA-MB-435 = tested on: MDA-MB-435
# NCI-H23 lung = tested on: NCI-H23 lung
# OVCAR-5 ovarian = tested on: OVCAR-5 ovarian
# OVCAR-4 ovarian = tested on: OVCAR-4 ovarian
# UACC-62 melanoma = tested on: UACC-62 melanoma
# KM12 colon = tested on: KM12 colon
# MDA-MB-231 breast = tested on: MDA-MB-231 breast
# SK-MEL-2 melanoma = tested on: SK-MEL-2 melanoma
# BT-549 breast = tested on: BT-549 breast
# HCT-116 colon = tested on: HCT-116 colon
# OVCAR-8 ovarian = tested on: OVCAR-8 ovarian
# UO-31 renal = tested on: UO-31 renal
# HOP-62 NSCLC = tested on: HOP-62 NSCLC
# RPMI-8226 leukemia = tested on: RPMI-8226 leukemia
# RXF 393 renal = tested on: RXF 393 renal
# HS 578T breast = tested on: HS 578T breast
# HT29 colon = tested on: HT29 colon
# ACHN renal = tested on: ACHN renal
# PC-3 prostate = tested on: PC-3 prostate
# CCRF-CEM leukemia = tested on: CCRF-CEM leukemia
# SF-295 CNS = tested on: SF-295 CNS
# SR leukemia = tested on: SR leukemia
# HCT-15 colon = tested on: HCT-15 colon
# NCI-H522 lung = tested on: NCI-H522 lung
# SNB-75 CNS = tested on: SNB-75 CNS
# HCC-2998 colon = tested on: HCC-2998 colon
# U251 CNS = tested on: U251 CNS
# NCI/ADR-RES ovarian = tested on: NCI/ADR-RES ovarian
# LOX IMVI melanoma = tested on: LOX IMVI melanoma
# EKVX NSCLC = tested on: EKVX NSCLC
# SK-MEL-28 melanoma = tested on: SK-MEL-28 melanoma
# SF-268 CNS = tested on: SF-268 CNS
# HL-60(TB) leukemia = tested on: HL-60(TB) leukemia
# SNB-19 CNS = tested on: SNB-19 CNS
# OVCAR-3 ovarian = tested on: OVCAR-3 ovarian
# A498 renal = tested on: A498 renal
# SK-OV-3 ovarian = tested on: SK-OV-3 ovarian
# TK-10 renal = tested on: TK-10 renal
# 786-0 renal = tested on: 786-0 renal
# IGROV1 ovarian = tested on: IGROV1 ovarian
# MALME-3M melanoma = tested on: MALME-3M melanoma
# UACC-257 melanoma = tested on: UACC-257 melanoma
# HOP-92 NSCLC = tested on: HOP-92 NSCLC
# SN12C renal = tested on: SN12C renal
# MCF7 breast = tested on: MCF7 breast
# NCI-H460 lung = tested on: NCI-H460 lung
# COLO 205 colon = tested on: COLO 205 colon
# T-47D breast = tested on: T-47D breast
# SF-539 CNS = tested on: SF-539 CNS
# K-562 leukemia = tested on: K-562 leukemia
# CAKI-1 renal = tested on: CAKI-1 renal
smiles,measurement,setting,value
CCOC(=O)c1ccc2c(c1)nc(-c1ccc(Cl)cc1)n2-c1cc(C(C)(C)C)[nH]n1,GI50,MOLT-4 leukemia,3.28 µM
same,TGI,MOLT-4 leukemia,30.4 µM
same,GI50,SK-MEL-5 melanoma,1.33 µM
same,TGI,SK-MEL-5 melanoma,3.39 µM
same,GI50,A549 NSCLC,3.13 µM
same,TGI,A549 NSCLC,> 100 µM
same,GI50,DU-145 prostate,2.85 µM
same,GI50,MDA-MB-435,0.717 µM
same,TGI,MDA-MB-435,7.1 µM
same,GI50,NCI-H23 lung,2.72 µM
same,TGI,NCI-H23 lung,> 100 µM
same,GI50,OVCAR-5 ovarian,3.68 µM
same,TGI,OVCAR-5 ovarian,> 100 µM
same,GI50,OVCAR-4 ovarian,3.64 µM
same,TGI,OVCAR-4 ovarian,> 100 µM
same,GI50,UACC-62 melanoma,1.67 µM
same,TGI,UACC-62 melanoma,4 µM
same,GI50,KM12 colon,2.78 µM
same,TGI,KM12 colon,14.2 µM
same,GI50,MDA-MB-231 breast,4.2 µM
same,TGI,MDA-MB-231 breast,40.8 µM
same,GI50,SK-MEL-2 melanoma,1.93 µM
same,TGI,SK-MEL-2 melanoma,4.4 µM
same,GI50,BT-549 breast,2.88 µM
same,TGI,BT-549 breast,8.4 µM
same,GI50,HCT-116 colon,3.12 µM
same,TGI,HCT-116 colon,29.9 µM
same,GI50,OVCAR-8 ovarian,2.55 µM
same,TGI,OVCAR-8 ovarian,12.7 µM
same,GI50,UO-31 renal,2.76 µM
same,TGI,UO-31 renal,45.7 µM
same,GI50,HOP-62 NSCLC,3.69 µM
same,TGI,HOP-62 NSCLC,> 100 µM
same,GI50,RPMI-8226 leukemia,2.99 µM
same,TGI,RPMI-8226 leukemia,22.9 µM
same,GI50,RXF 393 renal,1.81 µM
same,TGI,RXF 393 renal,5.87 µM
same,GI50,HS 578T breast,2.76 µM
same,TGI,HS 578T breast,8.57 µM
same,GI50,HT29 colon,2.79 µM
same,TGI,HT29 colon,7.17 µM
same,GI50,ACHN renal,3.28 µM
same,TGI,ACHN renal,10.1 µM
same,GI50,PC-3 prostate,2.82 µM
same,TGI,PC-3 prostate,> 100 µM
same,GI50,CCRF-CEM leukemia,3.06 µM
same,TGI,CCRF-CEM leukemia,34.1 µM
same,GI50,SF-295 CNS,2.62 µM
same,TGI,SF-295 CNS,11.4 µM
same,GI50,SR leukemia,0.635 µM
same,TGI,SR leukemia,8.16 µM
same,GI50,HCT-15 colon,3.27 µM
same,TGI,HCT-15 colon,> 100 µM
same,GI50,NCI-H522 lung,2.52 µM
same,TGI,NCI-H522 lung,6.66 µM
same,GI50,SNB-75 CNS,2.53 µM
same,TGI,SNB-75 CNS,> 100 µM
same,GI50,HCC-2998 colon,3.03 µM
same,TGI,HCC-2998 colon,16.2 µM
same,GI50,U251 CNS,3.04 µM
same,TGI,U251 CNS,> 100 µM
same,GI50,NCI/ADR-RES ovarian,2.13 µM
same,TGI,NCI/ADR-RES ovarian,6.65 µM
same,GI50,LOX IMVI melanoma,2.73 µM
same,TGI,LOX IMVI melanoma,10.8 µM
same,GI50,EKVX NSCLC,3.02 µM
same,TGI,EKVX NSCLC,> 100 µM
same,GI50,SK-MEL-28 melanoma,2.49 µM
same,TGI,SK-MEL-28 melanoma,12.2 µM
same,GI50,SF-268 CNS,3.13 µM
same,TGI,SF-268 CNS,13.8 µM
same,GI50,HL-60(TB) leukemia,3.65 µM
same,TGI,HL-60(TB) leukemia,9.2 µM
same,GI50,SNB-19 CNS,3.32 µM
same,TGI,SNB-19 CNS,> 100 µM
same,GI50,OVCAR-3 ovarian,2.05 µM
same,TGI,OVCAR-3 ovarian,5.65 µM
same,GI50,A498 renal,2.19 µM
same,TGI,A498 renal,6.51 µM
same,GI50,SK-OV-3 ovarian,3.43 µM
same,TGI,SK-OV-3 ovarian,36.9 µM
same,GI50,TK-10 renal,3.62 µM
same,TGI,TK-10 renal,> 100 µM
same,GI50,786-0 renal,3.17 µM
same,TGI,786-0 renal,> 100 µM
same,GI50,IGROV1 ovarian,3.77 µM
same,TGI,IGROV1 ovarian,> 100 µM
same,GI50,MALME-3M melanoma,2.75 µM
same,TGI,MALME-3M melanoma,9.18 µM
same,GI50,UACC-257 melanoma,3.41 µM
same,TGI,UACC-257 melanoma,> 100 µM
same,GI50,HOP-92 NSCLC,1.02 µM
same,TGI,HOP-92 NSCLC,4.79 µM
same,GI50,SN12C renal,3.33 µM
same,TGI,SN12C renal,40.6 µM
same,GI50,MCF7 breast,2.78 µM
same,TGI,MCF7 breast,12.2 µM
same,GI50,NCI-H460 lung,2.94 µM
same,TGI,NCI-H460 lung,8.02 µM
same,GI50,COLO 205 colon,2.23 µM
same,TGI,COLO 205 colon,4.75 µM
same,GI50,T-47D breast,3.78 µM
same,TGI,T-47D breast,> 100 µM
same,GI50,SF-539 CNS,2.16 µM
same,TGI,SF-539 CNS,4.99 µM
same,GI50,K-562 leukemia,2.72 µM
same,TGI,K-562 leukemia,16.1 µM
same,GI50,CAKI-1 renal,2.77 µM
same,TGI,CAKI-1 renal,> 100 µM
